This note sets out measurements from patent EP0844825B1, “INSECTICIDAL N-(SUBSTITUTED ARYLMETHYL)-4- BIS(SUBSTITUTED PHENYL OR PYRIDYL)METHYL]PIPERIDINES” (FMC CORPORATION, priority 1995, dated 1996).

Read-outs that look alike come from different tables or passages of the source. A value given as a limit tells only on which side of the number the result lay.

The subject of experiment [1] is tobacco budworm (Heliothis veriscens [Fabricius]). Briefly: Foliar spray test on chick pea plants, tobacco budworm, 96 hour exposure. In kind it is in vivo, Heliothis virescens. The following applies: rate of application 100 ppm, dead plus moribund insects, * = average of more than one test. The protocol:
(§1) Candidate insecticides with high pl50 values from the diet test were tested for insecticidal activity in foliar evaluations against tobacco budworm, beet armyworm (Spodoptera exigua [Hubner]), and cabbage looper (Trichoplusia ni [Hubner])
(§2) In these tests against tobacco budworm and beet armyworm, nine-day-old chick pea plants (Cicer arietinum) were sprayed at 20 psi to runoff on both upper and lower leaf surfaces with solutions of test chemical to provide application rates as high as 1000 ppm of test chemical. The solvent used to prepare the solutions of test chemical was 10% acetone or methanol (v/v) and 0.1% of the surfactant octylphenoxypolyethoxyethanol in distilled water. Four replicates, each containing one chick pea plant, for each rate of application of test chemical were sprayed. The treated plants were transferred to a hood, where they were kept until the spray had dried.
(§3) The four chick pea plants for each replicate treated with test chemical as described above were removed from their pots by cutting the stems just above the soil line. The excised leaves and stems from the four plants in each replicate were placed in individual 8-ounce paper cups, each containing a moistened filter paper. Five second-instar (6 days old) tobacco budworms or beet armyworms (7-8 days old) were counted into each cup, taking care not to cause injury. An opaque plastic lid was placed on each cup, which was then held in a growth chamber for a 96 hour exposure period at 25°C and 50% relative humidity. At the end of the 96 hour exposure period the cups were opened, and the numbers of dead, moribund, and live insects were counted. Using the insect counts, the efficacy of the test chemical was expressed in percent control. Percent control is derived from the total number of dead insects (TD) plus the total number of moribund insects (TM) as compared to the total number of insects (TI) in the test: % Control =(TD+TM)/(TI)x 100 [formula]
(§4) The condition of the test plants was also observed for phytotoxicity and for reduction of feeding damage as compared to an untreated control.

The subject of experiment [2] is tobacco budworm (Heliothis virescens [Fabricius]). Briefly: Diet test: test chemical incorporated into artificial diet of tobacco budworm larvae, 5-day exposure. The experiment is classed as in vivo. The following applies: for IC50 / LC50 / mortality at 100 µM / pest or weed control at 100 µM: Heliothis virescens, 120 h; for LC50: read-out: pLC50 (converted); for mortality at 100 µM / pest or weed control at 100 µM: feed or water; for mortality at 100 µM: read-out: Percent Mortality; for pest or weed control at 100 µM / Percent Growth Inhibition: rate of application 4 (negative log of molar concentration in the diet), second instar larvae, 25°C; for pest or weed control at 100 µM: read-out: Percent Growth Inhibition. On the procedure: Candidate insecticides were incorporated into an artificial diet for evaluation of insecticidal activity against the tobacco budworm (Heliothis virescens [Fabricius]) in the following manner. Stock solutions of test chemical in dimethyl sulfoxide, ranging from […], were prepared for each rate of application. One hundred microliters of each of the stock solutions was manually stirred into 50 mL of a molten (65-70°C) wheat germ-based artificial diet. The 50 mL of molten diet containing the test chemical was poured evenly into twenty wells in the outer two rows on each side of a twenty-five well, five row plastic tray. (Each well in the tray was about 1 cm in depth, with an opening of 3 cm by 4 cm at the lip.) Molten diet containing only dimethyl sulfoxide at the levels used in the test chemical-treated diet was poured into the five wells in the third (center) row of the tray. Each tray therefore contained one test chemical at a single rate of application, together with an untreated control. The rates of application, expressed as the negative log of the molar concentration, and the corresponding concentrations of the stock solution prepared for each rate are shown below:
Single second instar tobacco budworm larvae, selected at a stage of growth at which they uniformly weigh about 5 mg each, were placed in each well. Upon completion of infestation, a sheet of clear plastic was heat-sealed over the top of the tray by use of a common household flat.iron. The trays were held at 25°C at 60% relative humidity for five days in a growth chamber. Lighting was set at 14 hours of light and 10 hours of darkness. After the 5-day exposure period, mortality counts were taken, and the surviving insects were weighed. From the weights of the surviving insects that fed on the treated diet as compared to those insects that fed on the untreated diet, the percent growth inhibition caused by each test chemical was determined. […] Also, where possible, the negative log of the concentration of the test chemical that provided 50% mortality (pLC50) was determined.

In experiment [3] the test system is beet armyworm (Spodoptera exigua [Hubner]). Briefly: Foliar spray test on chick pea plants, beet armyworm, 96 hour exposure. The experiment is classed as in vivo. Particulars: rate of application 100 ppm, dead plus moribund insects, * = average of more than one test. On the procedure: as §1, §2, §3, §4
For experiment [4], the system named is cabbage looper (Trichoplusia ni [Hubner]). Nature of the experiment: Foliar spray test on pinto bean plants, cabbage looper, 96 hour exposure. In kind it is in vivo. Particulars: rate of application 100 ppm, dead plus moribund insects, * = average of more than one test. The protocol: as §1, §2, §3, §4
Foliar tests with cabbage looper were conducted in the same manner as described above, the difference being that pinto bean plants (Phaseolus vulgaris) were used in place of chick pea plants.

Where [5] appears, read: negative log of the concentration that provides 50% growth inhibition, by linear regression, 5 days, * = average of more than one test, read-out: pl50 (converted).
[6] abbreviates: negative log of the concentration that provides 50% mortality, 5 days, * = average of more than one test.
The mark [7] stands for this setting: 5 days, * = average of more than one test.
[8] abbreviates: negative log of the concentration that provides 50% growth inhibition, by linear regression, 5 days, * = average of more than one test.

With `COc1ccc(CN2CCC(C(O)(c3ccc(OC(F)(F)F)cc3)c3ccc(OC(F)(F)F)cc3)CC2)cc1` [Compound 1, N-(4-methoxyphenylmethyl)-4-[bis(4-trifluoromethoxyphenyl)hydroxymethyl]piperidine], the “Percent Control TBW” value in experiment [1] worked out at 80%. For the same compound, in experiment [2] (setting [5]), the IC50 is 794 nM. Moreover, in experiment [2] (setting [6]), the LC50 is 25100 nM. Further, in experiment [2], the mortality at 100 µM was 100%. Also, the pest or weed control at 100 µM in experiment [2] (setting [7]) stood at 100%. The “Percent Control BAW” value in experiment [3] is recorded as 55%. The “Percent Control CL” value in experiment [4] turned out to be 100%.
Take `Cn1nnc(-c2ccc(CN3CCC(C(O)(c4ccc(OC(F)(F)F)cc4)c4ccc(OC(F)(F)F)cc4)CC3)cc2)n1` [Compound 9, N-[4-(2-methyl-2H-tetrazol-5-yl)phenylmethyl]-4-[bis(4-trifluoromethoxyphenyl)hydroxymethyl]piperidine]: the “Percent Control TBW” value in experiment [1] turned out to be 100%. In addition, the IC50 in experiment [2] (setting [5]) was at most 316 nM. Besides, the LC50 in experiment [2] (setting [6]) is 2510 nM. In addition, in experiment [2], the mortality at 100 µM worked out at 100%. Further, the pest or weed control at 100 µM in experiment [2] (setting [7]) stood at 100%. This compound registered a pl50 in experiment [2] (setting [8]) of 6.6. In experiment [3], the “Percent Control BAW” value was found to be 100%. For the same compound, in experiment [4], the “Percent Control CL” value was found to be 100%.
In the case of `Cn1nnc(-c2ccc(CN3CCC(C(O)(c4ccc(C(F)(F)F)cc4)c4ccc(C(F)(F)F)cc4)CC3)cc2)n1` [Compound 31, N-[4-(2-methyl-2H-tetrazol-5-yl)phenylmethyl]-4-[bis(4-trifluoromethylphenyl)hydroxymethyl]piperidine], in experiment [1], the “Percent Control TBW” value stood at 100%. In addition, the IC50 in experiment [2] (setting [5]) was at most 316 nM. For the same compound, in experiment [2] (setting [6]), the LC50 was 2510 nM. The mortality at 100 µM in experiment [2] stood at 100%. In addition, the pest or weed control at 100 µM in experiment [2] (setting [7]) came out at 100%. For the same compound, the “Percent Control BAW” value in experiment [3] was 100* %. Besides, in experiment [4], the “Percent Control CL” value worked out at 100%.
As to `Cn1nnc(-c2ccc(C[N+]3([O-])CCC(C(O)(c4ccc(C(F)(F)F)cc4)c4ccc(C(F)(F)F)cc4)CC3)cc2)n1` (stereo not drawn) [Compound 32, N-[4-(2-methyl-2H-tetrazol-5-yl)phenylmethyl]-4-[bis(4-trifluoromethylphenyl)hydroxymethyl]piperidine N-oxide], the “Percent Control TBW” value in experiment [1] was 100%. In experiment [2] (setting [5]), the IC50 is at most 316 nM. Also, in experiment [2] (setting [6]), the LC50 was 2510 nM. The mortality at 100 µM in experiment [2] stood at 100%. The pest or weed control at 100 µM in experiment [2] (setting [7]) worked out at 100%. Besides, in experiment [3], the “Percent Control BAW” value is listed as 100* %. For the same compound, the “Percent Control CL” value in experiment [4] was 100%.
As to `CCn1nnc(-c2ccc(CN3CCC(C(O)(c4ccc(C(F)(F)F)cc4)c4ccc(C(F)(F)F)cc4)CC3)cc2)n1` [Compound 33], the “Percent Control TBW” value in experiment [1] is reported as 100%. Besides, the IC50 in experiment [2] (setting [5]) was at most 316 nM. For the same compound, the LC50 in experiment [2] (setting [6]) was 794 nM. Moreover, in experiment [2], the mortality at 100 µM is 100%. The compound also yielded a pl50 in experiment [2] (setting [8]) of 6.6. Further, the “Percent Growth Inhibition” value in experiment [2] (setting [7]) was found to be 99%. For the same compound, in experiment [3], the “Percent Control BAW” value was 100%. Also, in experiment [4], the “Percent Control CL” value turned out to be 95%.
On to `CCn1nnc(-c2ccc(C[N+]3([O-])CCC(C(O)(c4ccc(C(F)(F)F)cc4)c4ccc(C(F)(F)F)cc4)CC3)cc2)n1` (stereo not drawn) [Compound 34], for which the “Percent Control TBW” value in experiment [1] is on record as 100%. In experiment [2] (setting [5]), the IC50 is at most 316 nM. In experiment [2] (setting [6]), the LC50 was 1260 nM. The mortality at 100 µM in experiment [2] was determined as 100%. In addition, in experiment [2] (setting [7]), the “Percent Growth Inhibition” value was found to be 100%. Besides, the “Percent Control BAW” value in experiment [3] was 100%. Further, in experiment [4], the “Percent Control CL” value is 100%.
With `CCCOc1ccc(CN2CCC(C(O)(c3ccc(C(F)(F)F)cc3)c3ccc(C(F)(F)F)cc3)CC2)cc1` [Compound 102], the “Percent Control TBW” value in experiment [1] was 98* %. Besides, in experiment [2], the LC50 is 3160 nM and the mortality at 100 µM is 100%. In addition, in experiment [2] (read-out: pl50), the IC50 is below 1000 nM. Besides, the “Percent Growth Inhibition” value in experiment [2] (setting [7]) stood at 100%. Also, the “Percent Control BAW” value in experiment [3] is listed as 100* %. Further, the “Percent Control CL” value in experiment [4] is listed as 100* %.

As a reminder, the mortality is the share of the test organisms that died.
